Values quoted from earlier work in patent EP2527351B1, “Lipophosphonoxins, method of their preparation and use” (priority 2011, dated 2012).

Test system: Mycobacterium tuberculosis strains
Settings: multidrug-resistant strains, in vitro; cited from earlier work

For caprazamycins [CPZs], the MIC is listed as 3.13 µg/mL.
